As usually defined, the AC50 is the concentration giving half of the maximal activity seen. The IC50 is the concentration at which inhibition is half-maximal.

Counter-ions that a name gives are not always drawn. Like-named read-outs stand apart in the source and are kept apart here. Some results are limits rather than exact numbers.

Consider 16 compounds from US20240279239A1, “COMPOUNDS AND METHODS FOR MODULATING SPLICING” (REMIX THERAPEUTICS INC., priority 2020, published 2024).

Common to all, as to type: cell-based
Test [1] relates to HTT. As to the kind of experiment: RT-qPCR splicing assay for HTT mRNA isoforms (canonical junction CJ and alternative junction AJ). Particulars: A673 or K562 cell line, 24 hours treatment. As for the experimental part: (§1) Example 44: Exemplary splicing assay for monitoring expression levels of splice variants Compounds described herein were used to modulate RNA transcript abundance in cells. The expression of a target mRNA was measured by detecting the formation of an exon-exon junction in the canonical transcript (CJ). A compound mediated exon-inclusion event was detected by observing an increase in formation of a new junction with an alternative exon (AJ). Real-time qPCR assays were used to detect these splicing switches and interrogate the potency of various compounds towards different target genes. A high-throughput real time quantitative PCR (RT-qPCR) assay was developed to measure these two isoforms of the mRNA (CJ and AJ) for an exemplary gene, HTT, together with a control housekeeping gene, GAPDH or GUSB or PPIA, used for normalization. Briefly, the A673 or K562 cell line was treated with various compounds described herein (e.g., compounds of Formula (I)). After treatment, the levels of the HTT mRNA targets were determined from each sample of cell lysate by cDNA synthesis followed by qPCR.
(§2) The A673 cell line was cultured in DMEM with 10% FBS. Cells were diluted with full growth media and plated in a 96-well plate (15,000 cells in 100 µl media per well). The plate was incubated at 37° C. with 5% CO2 for 24 hours to allow cells to adhere. An 11-point 3-fold serial dilution of the compounds was made in DMSO then diluted in media in an intermediate plate. Compounds were transferred from the intermediate plate to the cell plate with the top dose at a final concentration of 10 uM in the well. Final DMSO concentration was kept at or below 0.25%. The cell plate was returned to the incubator at 37° C. with 5% CO2 for an additional 24 hours.
(§3) The K562 cell line was cultured in IMDM with 10% FBS. For K562, cells were diluted with full growth media and plated in either a 96-well plate (50,000 cells in 50 uL media per well) or a 384-well plate (8,000-40,000 cells in 45 uL media per well). An 11-point 3-fold serial dilution of the compounds were made in DMSO then diluted in media in an intermediate plate. Compound was transferred from the intermediate plate to the cell plate with the top dose at a final concentration of 10 uM in the well. Final DMSO concentration was kept at or below 0.25%. Final volume was 100 uL for 96-well plate and 50 uL for 384-well plate. The cell plate was then placed in an incubator at 37° C. with 5% CO2 for 24 hours.
(§4) The cells were then gently washed with 50 uL-100 uL cold PBS before proceeding to addition of lysis buffer. 30 uL-50 uL of room temperature lysis buffer with DNAse I (and optionally RNAsin) was added to each well. Cells were shaken/mixed thoroughly at room temperature for 5-10 minutes for lysis to take place and then 3 uL-5 uL of room temperature stop solution was added and wells were shaken/mixed again. After 2-5 minutes, the cell lysate plate was transferred to ice for RT-qPCR reaction setup. The lysates could also be frozen at ˜80° C. for later use.
(§5) In some cases, a direct lysis buffer was used. An appropriate volume of 3× lysis buffer (10 mM Tris, 150 mM NaCl, 1.5%-2.5% Igepal and 0.1-1 U/uL RNAsin, pH 7.4) was directly added to either K562 or A673 cells in media and mixed by pipetting 3 times. The plates were then incubated at room temperature with shaking/rocking for 20-50 minutes to allow for lysis to take place. After this time, the cell lysate plate was transferred to ice to set up for the RT-qPCR reactions. The lysates could also be frozen at −80° C. for later use.
(§6) To set up 10 uL RT-qPCR reactions, cell lysates were transferred to 384-well qPCR plates containing the master mix according to the table below. The plates were sealed, gently vortexed, and spun down before the run. The volumes were adjusted accordingly in some instances where the reaction was carried in 20 uL. The table below summarizes the components of the RT-qPCR reactions: […]
Background: In qPCR the cycle at which signal appears reflects the starting amount.

The subject of test [2] is HTT. As to the kind of experiment: RT-qPCR canonical junction panel assay, HTT. Particulars: gene panel, read-out: HTT IC50 (decrease in CJ mRNA levels). As for the experimental part: as §1, §2, §3, §4, §5, §6
Test [3] has as its system SMN2. As to the kind of experiment: RT-qPCR canonical junction panel assay, SMN2. Particulars: gene panel, read-out: SMN2 IC50 (decrease in CJ mRNA levels). Here is the method: as §1, §2, §3, §4, §5, §6
Test [4] relates to Target C. As to the kind of experiment: RT-qPCR canonical junction panel assay, Target C. Particulars: gene panel, read-out: Target C IC50 (decrease in CJ mRNA levels). As for the experimental part:
as §1, §2, §3, §4, §5, §6

Setting [5] is: decrease in CJ mRNA levels, read-out: HTT CJ AC50.
Setting [6] is: increase in AJ mRNA, read-out: HTT AJ AC50.

As to `CN1CCN(c2nc3ncn(-c4ccc5nn(C)cc5c4)c(=O)c3s2)CC1` [Compound 182, 6-(2-methyl-2H-indazol-5-yl)-2-(4-methylpiperazin-1-yl)thiazolo[4,5-d]pyrimidin-7(6H)-one], the concentration at half-maximal activity (AC50) in test [1] (setting [5]) and in test [1] (setting [6]) was 1000 to 10000 nM each time. Also, the IC50 in test [2] and in test [3] was 1000 to 10000 nM throughout.

On to `Cc1cn2nc(-c3cc4ncn(C5CCN(C)CC5)c(=O)c4s3)cc(C)c2n1` [Compound 239, 6-(2,8-dimethylimidazo[1,2-b]pyridazin-6-yl)-3-(1-methylpiperidin-4-yl)thieno[3,2-d]pyrimidin-4(3H)-one], for which the AC50 in test [1] (setting [5]) and in test [1] (setting [6]) was 1000 to 10000 nM in each case. The half-inhibitory concentration (IC50) in test [2] is 1000 to 10000 nM; in test [4] it was > 10000 nM; in test [3], < 100 nM.

`Cc1cn2nc(-c3cn4c(=O)cc(N5CCNC6(CC6)C5)nc4s3)cc(C)c2n1` [Compound 212, 2-(2,8-dimethylimidazo[1,2-b]pyridazin-6-yl)-7-(4,7-diazaspiro[2.5]octan-7-yl)-5H-thiazolo[3,2-α]pyrimidin-5-one]: the concentration at half-maximal activity (AC50) in test [1] (setting [5]) and in test [1] (setting [6]) was 1000 to 10000 nM throughout. In addition, the 50% inhibitory concentration (IC50) in test [2], in test [4] and in test [3] was 1000 to 10000 nM in each case.

With `Cc1cn2nc(-c3cc(=O)n4cc(N(C)C5CC(C)(C)NC(C)(C)C5)sc4n3)cc(C)c2n1` [Compound 205, 7-(2,8-dimethylimidazo[1,2-b]pyridazin-6-yl)-2-(methyl(2,2,6,6-tetramethylpiperidin-4-yl)amino)-5H-thiazolo[3,2-α]pyrimidin-5-one], the AC50 in test [1] (setting [5]) and in test [1] (setting [6]) was 1000 to 10000 nM each time. For the same compound, the half-maximal inhibitory concentration (IC50) in test [2], in test [4] and in test [3] was 1000 to 10000 nM each time.

Regarding `Cc1cn2cc(-c3nc4ncn(C5CCNCC5)c(=O)c4s3)cc(F)c2n1` [Compound 232, 2-(8-fluoro-2-methylimidazo[1,2-α]pyridin-6-yl)-6-(piperidin-4-yl)thiazolo[4,5-d]pyrimidin-7(6H)-one], the AC50 in test [1] (setting [5]) and in test [1] (setting [6]) was < 100 nM throughout. For the same compound, the IC50 in test [2] was < 100 nM; in test [4], 100 to 1000 nM; in test [3] it was < 100 nM.

For the compound `Cc1cn2cc(-n3cnc4nc(N5CCN(C)CC5)sc4c3=O)cc(F)c2n1` [Compound 228, 6-(8-fluoro-2-methylimidazo[1,2-α]pyridin-6-yl)-2-(4-methylpiperazin-1-yl)thiazolo[4,5-d]pyrimidin-7(6H)-one], the concentration at half-maximal activity (AC50) in test [1] (setting [5]) and in test [1] (setting [6]) was 1000 to 10000 nM each time. In addition, the IC50 in test [2], in test [4] and in test [3] was 1000 to 10000 nM throughout.

Consider `Cc1cn2cc(-n3cnc4nc(N(C)C5CC(C)(C)NC(C)(C)C5)sc4c3=O)cc(F)c2n1` [Compound 227, 6-(8-fluoro-2-methylimidazo[1,2-α]pyridin-6-yl)-2-(methyl(2,2,6,6-tetramethylpiperidin-4-yl)amino)thiazolo[4,5-d]pyrimidin-7(6H)-one, formate], for which the concentration at half-maximal activity (AC50) in test [1] (setting [5]) and in test [1] (setting [6]) was > 10000 nM in each case. The IC50 in test [2], in test [4] and in test [3] was > 10000 nM throughout.

For the compound `Cc1cn2nc(-c3nc4ncn(C5CCNCC5)c(=O)c4s3)cc(C)c2n1` [Compound 231, 2-(2,8-dimethylimidazo[1,2-b]pyridazin-6-yl)-6-(piperidin-4-yl)thiazolo[4,5-d]pyrimidin-7(6H)-one], the AC50 in test [1] (setting [5]) and in test [1] (setting [6]) was 100 to 1000 nM each time. Besides, the IC50 in test [2] lay in the range of 100 to 1000 nM; in test [4] it was 1000 to 10000 nM; in test [3] it was 1000 to 10000 nM.

For the compound `Cc1cn2cc(-n3cnc4nc(N5CCN(C)CC5)sc4c3=O)cc(C(F)(F)F)c2n1` [Compound 230, 6-(2-methyl-8-(trifluoromethyl)imidazo[1,2-α]pyridin-6-yl)-2-(4-methylpiperazin-1-yl)thiazolo[4,5-d]pyrimidin-7(6H)-one], the AC50 in test [1] (setting [5]) and in test [1] (setting [6]) was > 10000 nM each time. Also, the IC50 in test [2], in test [4] and in test [3] was > 10000 nM throughout.

For `Cc1cn2nc(-c3cc4ncn(C5CCNCC5)c(=O)c4s3)cc(C)c2n1` [Compound 238, 6-(2,8-dimethylimidazo[1,2-b]pyridazin-6-yl)-3-(piperidin-4-yl)thieno[3,2-d]pyrimidin-4(3H)-one], the AC50 in test [1] (setting [5]) and in test [1] (setting [6]) was 100 to 1000 nM in each case. The IC50 is 100 to 1000 nM in test [2], 1000 to 10000 nM in test [4] and < 100 nM in test [3].

Consider `Cc1cn2nc(-c3cc(=O)n4cc(N5CCNC6(CC6)C5)sc4n3)cc(C)c2n1` [Compound 211, 7-(2,8-dimethylimidazo[1,2-b]pyridazin-6-yl)-2-(4,7-diazaspiro[2.5]octan-7-yl)-5H-thiazolo[3,2-α]pyrimidin-5-one], for which the AC50 in test [1] (setting [5]) and in test [1] (setting [6]) was 1000 to 10000 nM each time. For the same compound, the IC50 in test [2] was in the range of 1000 to 10000 nM; in test [4], 1000 to 10000 nM; in test [3], 100 to 1000 nM.

In the case of `Cc1cc(-c2nc3ncn(C4CCN(C)CC4)c(=O)c3s2)cc2cn(C)nc12` [Compound 234, 2-(2,7-dimethyl-2H-indazol-5-yl)-6-(1-methylpiperidin-4-yl)thiazolo[4,5-d]pyrimidin-7(6H)-one], the half-maximal activity concentration (AC50) in test [1] (setting [5]) and in test [1] (setting [6]) was 100 to 1000 nM in each case. Besides, the concentration for half-maximal inhibition (IC50) in test [2] is 100 to 1000 nM; in test [4], 1000 to 10000 nM; in test [3], < 100 nM.

For the compound `Cc1cn2cc(-c3cn4c(=O)cc(N5CCNCC5)nc4s3)cc(F)c2n1` [Compound 213, 2-(8-fluoro-2-methylimidazo[1,2-α]pyridin-6-yl)-7-(piperazin-1-yl)-5H-thiazolo[3,2-α]pyrimidin-5-one], the AC50 in test [1] (setting [5]) and in test [1] (setting [6]) was > 10000 nM in each case. For the same compound, the IC50 is > 10000 nM in test [2], > 10000 nM in test [4] and 1000 to 10000 nM in test [3].

For `Cc1cc(-c2nn3c(=O)cc(N4CCNCC4)nc3s2)cc2cn(C)nc12` [Compound 206, 2-(2,7-dimethyl-2H-indazol-5-yl)-7-(piperazin-1-yl)-5H-[1,3,4]thiadiazolo[3,2-α]pyrimidin-5-one], the AC50 in test [1] (setting [5]) and in test [1] (setting [6]) was 1000 to 10000 nM throughout. Moreover, the IC50 in test [2] lay in the range of 1000 to 10000 nM; in test [4] it was 1000 to 10000 nM; in test [3], 100 to 1000 nM.

For `Cc1cc(-c2cn3c(=O)cc(N4CCN(C)CC4)nc3s2)cc2cn(C)nc12` [Compound 183, 2-(2,7-dimethyl-2H-indazol-5-yl)-7-(4-methylpiperazin-1-yl)-5H-thiazolo[3,2-α]pyrimidin-5-one], the AC50 in test [1] (setting [5]) and in test [1] (setting [6]) was > 10000 nM each time. In addition, the IC50 in test [2] is > 10000 nM; in test [3], 1000 to 10000 nM.

As to `Cc1cn2cc(-c3cn4c(=O)cc(N5CCN(C)CC5)nc4s3)cc(F)c2n1` [Compound 184], the half-maximal activity concentration (AC50) in test [1] (setting [5]) and in test [1] (setting [6]) was > 10000 nM in each case. The IC50 in test [2] is > 10000 nM; in test [3], 1000 to 10000 nM.
